# Where a name gives a salt, the structure may show the parent alone.
# Target: T1, PRS (prolyl-tRNA synthetase) (Homo sapiens, UniProt P07814)
# T1 construct: the portion corresponding to PRS in cDNA of EPRS was subcloned; made in house
# T1 sequence (P07814 1007-1512 limits assumed): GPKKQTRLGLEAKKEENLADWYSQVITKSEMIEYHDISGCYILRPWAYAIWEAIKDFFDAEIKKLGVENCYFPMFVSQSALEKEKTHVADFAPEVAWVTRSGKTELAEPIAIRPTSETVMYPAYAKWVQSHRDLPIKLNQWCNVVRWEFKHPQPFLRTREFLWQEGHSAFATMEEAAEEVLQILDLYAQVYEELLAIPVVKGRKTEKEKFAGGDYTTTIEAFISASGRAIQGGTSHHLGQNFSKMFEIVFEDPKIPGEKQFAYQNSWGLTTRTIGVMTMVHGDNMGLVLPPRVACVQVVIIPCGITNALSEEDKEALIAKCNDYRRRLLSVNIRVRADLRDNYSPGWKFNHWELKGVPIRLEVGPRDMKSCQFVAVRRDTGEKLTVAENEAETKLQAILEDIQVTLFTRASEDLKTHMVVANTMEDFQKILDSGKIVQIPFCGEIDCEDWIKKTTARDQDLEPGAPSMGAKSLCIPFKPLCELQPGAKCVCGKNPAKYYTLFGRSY
# Assay: In vitro PRS enzyme activity inhibition experiment ([3H]proline, liquid scintillation)
# Type: biochemical
# Conditions: purified PRS protein subcloned from EPRS cDNA; 37° C., 5 to 10 minutes; read-out: PRS IC50
# Experimental: In order to confirm the biological activities of the compounds prepared in Examples, % inhibition or IC50 values of PRS enzyme ([…]) activities were calculated.
# Specifically, the portion corresponding to PRS in cDNA of EPRS was subcloned, and the obtained high-purity PRS protein was purified and used in the experiment. The compounds (1 μM) prepared in Examples were added into the reaction buffer (20 mM KPO4 (pH 7.4), 6 mM MgAc, 5 mM ATP, […] tRNA, 0.5 mM DTT, 20 mCi[^3H]proline (1 mCi/mL)) and allowed to react at 37° C. for 5 to 10 minutes. The reaction was terminated with 3M paper that was previously dried by addition of 5% TCA. The radioactivity was measured using a liquid scintillation counter.
# IC50 values of the respective compounds were calculated and analyzed using Microsoft Excel or Sigma Plot 8.0. In Table 1, the results are divided into A, B and C according to the range of IC50. The case where the derived IC50 is 100 nM or less is represented by “A”, the case where the IC50 is 100 to 500 nM is represented by “B”, and the case where the IC50 is 500 nM or higher is represented by “C”.
row,SMILES,IC50 [nM]
1,"O=C(C[C@H]1NCCC[C@@H]1O)Cn1cnc2nc(Br)ccc21 [Example 29, 1-(5-bromo-1H-imidazo[4,5-b]pyridin-1-yl)-3-((2R,3S)-3-hydroxypiperidin-2-yl)propan-2-one]",> 500
2,"O=C(C[C@H]1NCCC[C@@H]1O)Cn1cnc2ncc(Br)cc21 [Example 31, 1-(6-bromo-1H-imidazo[4,5-b]pyridin-1-yl)-3-((2R,3S)-3-hydroxypiperidin-2-yl)propan-2-one]",> 500
3,"O=C(C[C@H]1NCCC[C@@H]1O)Cn1cnc2cccnc21 [Example 34, 1-((2R,3S)-3-hydroxypiperidin-2-yl)-3-(3H-imidazo[4,5-b]pyridin-3-yl)propan-2-one]",100 to 500
4,"O=C(C[C@H]1NCCC[C@@H]1O)Cn1cnc2c(Cl)cc(Cl)nc21 [Example 41, 1-(5,7-dichloro-3H-imidazo[4,5-b]pyridin-3-yl)-3-((2R,3S)-3-hydroxypiperidin-2-yl)propan-2-one]",< 100
5,"O=C(C[C@H]1NCCC[C@@H]1O)Cn1cnc2cc(C(=O)O)ncc21 [Example 43, 3-(3-((2R,3S)-3-hydroxypiperidin-2-yl)-2-oxopropyl)-3H-imidazo[4,5-c]pyridine-6-carboxylic acid hydrochloride salt]",> 500
6,"O=C(C[C@H]1NCCC[C@@H]1O)Cn1cnc2c(Cl)ncnc21 [Example 44, 1-(6-chloro-9H-purin-9-yl)-3-((2R,3S)-3-hydroxypiperidin-2-yl)propan-2-one hydrochloride salt]",> 500
7,"O=C(C[C@H]1NCCC[C@@H]1O)Cn1cnc2c1CCCC2 [Example 45, 1-((2R,3S)-3-hydroxypiperidin-2-yl)-3-(4,5,6,7-tetrahydro-1H-benzo[d]imidazol-1-yl)propan-2-one]",100 to 500
8,"Cc1nc2c(F)c(F)ccc2n1CC(=O)C[C@H]1NCCC[C@@H]1O [Example 47, 1-(4,5-difluoro-2-methyl-1H-benzo[d]imidazol-1-yl)-3-((2R,3S)-3-hydroxypiperidin-2-yl)propan-2-one]",> 500
9,"Cc1nc2ncccc2n1CC(=O)C[C@H]1NCCC[C@@H]1O [Example 49, 1-((2R,3S)-3-hydroxypiperidin-2-yl)-3-(2-methyl-1H-imidazo[4,5-b]pyridin-1-yl)propan-2-one]",> 500
10,"O=C(C[C@H]1NCCC[C@@H]1O)Cn1c(CCO)nc2ccc(F)cc21 [Example 53, 1-(6-fluoro-2-(2-hydroxyethyl)-1H-benzo[d]imidazol-1-yl)-3-((2R,3S)-3-hydroxypiperidin-2-yl)propan-2-one]",> 500
11,"C[C@@H](O)c1nc2ccccc2n1CC(=O)C[C@H]1NCCC[C@@H]1O [Example 54, 1-(2-((R)-1-hydroxyethyl)-1H-benzo[d]imidazol-1-yl)-3-((2R,3S)-3-hydroxypiperidin-2-yl)propan-2-one]",> 500
12,"C[C@H](O)c1nc2ccccc2n1CC(=O)C[C@H]1NCCC[C@@H]1O [Example 55, 1-(2-((S)-1-hydroxyethyl)-1H-benzo[d]imidazol-1-yl)-3-((2R,3S)-3-hydroxypiperidin-2-yl)propan-2-one]",> 500
13,"COCc1nc2cc(Cl)c(Cl)cc2n1CC(=O)C[C@H]1NCCC[C@@H]1O [Example 63, 1-(5,6-dichloro-2-(methoxymethyl)-1H-benzo[d]imidazol-1-yl)-3-((2R,3S)-3-hydroxypiperidin-2-yl)propan-2-one]",> 500
14,"O/N=C(/C[C@H]1NCCC[C@@H]1O)Cn1cnc2cc(Cl)c(Cl)cc21 [Example 64, 1-(5,6-dichloro-1H-benzo[d]imidazol-1-yl)-3-((2R,3S)-3-hydroxypiperidin-2-yl)propan-2-one oxime]",> 500
15,"OCc1nc2cc(Cl)c(Cl)cc2n1C/C(C[C@H]1NCCC[C@@H]1O)=N/O [Example 65, 1-(5,6-dichloro-2-(hydroxymethyl)-1H-benzo[d]imidazol-1-yl)-3-((2R,3S)-3-hydroxypiperidin-2-yl)propan-2-one oxime]",> 500
16,"O/N=C(/C[C@H]1NCCC[C@@H]1O)Cn1cnc2ncc(Br)cc21 [Example 66, 1-(6-bromo-1H-imidazo[4,5-b]pyridin-1-yl)-3-((2R,3S)-3-hydroxypiperidin-2-yl)propan-2-one oxime]",> 500

row,SMILES,IC50 [nM]
1,"CO/N=C(/C[C@H]1NCCC[C@@H]1O)Cn1cnc2cc(Cl)c(Cl)cc21 [Example 67, 1-(5,6-dichloro-1H-benzo[d]imidazol-1-yl)-3-((2R,3S)-3-hydroxypiperidin-2-yl)propan-2-one O-methyl oxime]",> 500
2,"O=C(C[C@H]1NCCC[C@@H]1O)Cn1c(CO)nc2ncccc21 [Example 68, 1-(2-(hydroxymethyl)-1H-imidazo[4,5-b]pyridin-1-yl)-3-((2R,3S)-3-hydroxypiperidin-2-yl)propan-2-one]",100 to 500
3,"OC(C[C@H]1NCCC[C@@H]1O)Cn1cnc2c(C(F)(F)F)c(Br)ccc21 (stereo partly drawn) [Example 72, (2R,3S)-2-(3-(5-bromo-4-(trifluoromethyl)-1H-benzo[d]imidazol-1-yl)-2-hydroxypropyl)piperidin-3-ol]",> 500
4,"Cc1ccc2c(ncn2CC(O)C[C@H]2NCCC[C@@H]2O)c1Br (stereo partly drawn) [Example 73, (2R,3S)-2-(3-(4-bromo-5-methyl-1H-benzo[d]imidazol-1-yl)-2-hydroxypropyl)piperidin-3-ol]",> 500
5,"OC(C[C@H]1NCCC[C@@H]1O)Cn1cnc2c(F)c(Br)ccc21 (stereo partly drawn) [Example 74, (2R,3S)-2-(3-(5-bromo-4-fluoro-1H-benzo[d]imidazol-1-yl)-2-hydroxypropyl)piperidin-3-ol]",> 500
6,"OC(C[C@H]1NCCC[C@@H]1O)Cn1cnc2c(Cl)c(Cl)ccc21 (stereo partly drawn) [Example 75, (2R,3S)-2-(3-(4,5-dichloro-1H-benzo[d]imidazol-1-yl)-2-hydroxypropyl)piperidin-3-ol]",> 500
7,"Cc1c(Cl)ccc2c1ncn2CC(O)C[C@H]1NCCC[C@@H]1O (stereo partly drawn) [Example 76, (2R,3S)-2-(3-(5-chloro-4-methyl-1H-benzo[d]imidazol-1-yl)-2-hydroxypropyl)piperidin-3-ol]",> 500
8,"Cc1c(Cl)cnc2c1ncn2CC(O)C[C@H]1NCCC[C@@H]1O (stereo partly drawn) [Example 77, (2R,3S)-2-(3-(6-chloro-7-methyl-3H-imidazo[4,5-b]pyridin-3-yl)-2-hydroxypropyl)piperidin-3-ol]",> 500
9,"OC(C[C@H]1NCCC[C@@H]1O)Cn1cnc2c(Cl)c(Br)cnc21 (stereo partly drawn) [Example 79, (2R,3S)-2-(3-(6-bromo-7-chloro-3H-imidazo[4,5-b]pyridin-3-yl)-2-hydroxypropyl)piperidin-3-ol]",100 to 500
10,"Cc1c(Br)ccc2c1ncn2CC(O)(C[C@H]1NCCC[C@@H]1O)C(F)(F)F (stereo partly drawn) [Example 85, (2R,3S)-2-(2-((5-bromo-4-methyl-1H-benzo[d]imidazol-1-yl)methyl)-3,3,3-trifluoro-2-hydroxypropyl)piperidin-3-ol]",> 500
11,"CNC(C[C@H]1NCCC[C@@H]1O)Cn1cnc2cc(Cl)c(Cl)cc21 (stereo partly drawn) [Example 86, (2R,3S)-2-(3-(5,6-dichloro-1H-benzo[d]imidazol-1-yl)-2-(methylamino)propyl)piperidin-3-ol]",> 500
12,"O=C(C[C@H]1NCCC[C@@H]1O)Cn1ccc2cc(Cl)cnc21 [Example 91, 1-(5-chloro-1H-pyrrolo[2,3-b]pyridin-1-yl)-3-((2R,3S)-3-hydroxypiperidin-2-yl)propan-2-one]",100 to 500
13,"O=C(C[C@H]1NCCC[C@@H]1O)Cn1ncc2cc(Cl)ccc21 [Example 96, 1-(5-chloro-1H-indazol-1-yl)-3-((2R,3S)-3-hydroxypiperidin-2-yl)propan-2-one]",> 500
14,"Cc1ccc2c(cnn2CC(=O)C[C@H]2NCCC[C@@H]2O)c1Br [Example 97, 1-(4-bromo-5-methyl-1H-indazol-1-yl)-3-((2R,3S)-3-hydroxypiperidin-2-yl)propan-2-one]",100 to 500
15,"O=C(C[C@H]1NCCC[C@@H]1O)Cn1ncc2cc(Cl)cnc21 [Example 98, 1-(5-chloro-1H-pyrazolo[3,4-b]pyridin-1-yl)-3-((2R,3S)-3-hydroxypiperidin-2-yl)propan-2-one]",> 500

# Source: patent US10081634B2, “Heterocyclic compound” (Daewoong Pharmaceutical Co., Ltd., priority 2014, dated 2018)
